Results taken from patent US9862707B2, “TrkA kinase inhibitors, compositions and methods thereof” (Merck Sharp & Dohme Corp., priority 2014, dated 2018).

Target: human TrkA receptor (Homo sapiens (Human), UniProt P04629)
Assay: TrkA functional activity, DiscoverX PathHunter assay
Format: cell-based
Conditions: U2OS cells expressing human TrkA-PK, Shc1-EA and p75NTR; compound 1 h, then NGF at ~80% of maximal response for 3 h; luminescence

Sequence of human TrkA receptor (P04629 33-796): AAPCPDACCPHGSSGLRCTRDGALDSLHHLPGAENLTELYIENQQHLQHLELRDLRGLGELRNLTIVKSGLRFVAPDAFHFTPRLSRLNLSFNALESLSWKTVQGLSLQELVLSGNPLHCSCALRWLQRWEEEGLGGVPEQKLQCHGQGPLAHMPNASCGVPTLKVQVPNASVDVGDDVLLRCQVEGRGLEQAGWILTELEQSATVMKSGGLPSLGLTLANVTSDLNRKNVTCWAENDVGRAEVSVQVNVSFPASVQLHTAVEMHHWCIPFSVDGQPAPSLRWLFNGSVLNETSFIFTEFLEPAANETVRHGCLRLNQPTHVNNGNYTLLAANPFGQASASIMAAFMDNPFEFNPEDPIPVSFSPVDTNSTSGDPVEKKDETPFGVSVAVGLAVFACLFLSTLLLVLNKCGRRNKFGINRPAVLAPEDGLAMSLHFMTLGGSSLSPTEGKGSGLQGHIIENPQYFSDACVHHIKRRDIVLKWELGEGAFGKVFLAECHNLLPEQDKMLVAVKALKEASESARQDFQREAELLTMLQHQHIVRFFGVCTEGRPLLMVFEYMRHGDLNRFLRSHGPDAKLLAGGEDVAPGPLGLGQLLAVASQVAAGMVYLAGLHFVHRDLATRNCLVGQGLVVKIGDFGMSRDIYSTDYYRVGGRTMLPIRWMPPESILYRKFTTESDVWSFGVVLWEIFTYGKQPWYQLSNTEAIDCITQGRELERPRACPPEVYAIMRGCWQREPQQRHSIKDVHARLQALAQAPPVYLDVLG

SMILES | IC50
CC(O)c1ccc2c(NC(=O)c3cc(-c4ncccn4)c(C(F)(F)F)cc3F)n(-c3ccccc3)nc2c1 (single isomer, unassigned) [Compound 19, (R and S)-2-Fluoro-N-(6-(1-hydroxyethyl)-2-phenyl-2H-indazol-3-yl)-5-(pyrimidin-2-yl)-4-(trifluoromethyl)benzamide, isomers A and B] | 1.9 nM
CC(O)c1ccc2c(NC(=O)c3cc(-c4ncccn4)c(C(F)(F)F)cc3F)n(-c3ccccc3)nc2c1 (single isomer, unassigned) [Compound 20, (R and S)-2-Fluoro-N-(6-(1-hydroxyethyl)-2-phenyl-2H-indazol-3-yl)-5-(pyrimidin-2-yl)-4-(trifluoromethyl)benzamide, isomers A and B] | 2.9 nM
CC(O)c1cnc2c(NC(=O)c3cc(-c4cc[nH]n4)c(C(F)(F)F)cc3F)n(-c3ccccc3)nc2c1 (single isomer, unassigned) [Compound 21, 2-Fluoro-N-(6-(1-hydroxyethyl)-2-phenyl-2H-pyrazolo[4,3-b]pyridin-3-yl)-5-(1H-pyrazol-3-yl)-4-(trifluoromethyl)benzamide, isomers A and B] | 0.69 nM
CC(O)c1cnc2c(NC(=O)c3cc(-c4cc[nH]n4)c(C(F)(F)F)cc3F)n(-c3ccccc3)nc2c1 (single isomer, unassigned) [Compound 22, 2-Fluoro-N-(6-(1-hydroxyethyl)-2-phenyl-2H-pyrazolo[4,3-b]pyridin-3-yl)-5-(1H-pyrazol-3-yl)-4-(trifluoromethyl)benzamide, isomers A and B] | 1.2 nM
O=C(Nc1c2ccc(C(O)C(F)(F)F)cc2nn1-c1ccccc1)c1cc(-c2ncccn2)c(C(F)(F)F)cc1F (single isomer, unassigned) [Compound 52, (R or S)-2-Fluoro-N-{2-phenyl-6-[(1S)-2,2,2-trifluoro-1-hydroxyethyl]-2H-indazol-3-yl}-5-pyrimidin-2-yl-4-(trifluoromethyl)benzamide, isomers A and B] | 2.8 nM
CC(O)c1ccc2nn(-c3ccccc3)c(NC(=O)c3ccc(C(F)(F)F)c(-c4ccn(C)n4)c3)c2c1 (single isomer, unassigned; isomer a) [Compound 23, (R or S)-N-[5-(1-hydroxyethyl)-2-phenyl-2H-indazol-3-yl]-3-(1-methyl-1H-pyrazol-3-yl)-4-(trifluoromethyl)benzamide, isomer A] | 3.7 nM
CC(O)c1cnc2c(NC(=O)c3cc(-c4ncccn4)c(C(F)(F)F)cc3F)n(-c3ccccc3)nc2c1 (single isomer, unassigned; isomer a) [Compound 29, (R or S)-2-fluoro-N-[6-(1-hydroxyethyl)-2-phenyl-2H-pyrazolo[4,3-b]pyridin-3-yl]-5-pyrimidin-2-yl-4-(trifluoromethyl)benzamide, isomer A] | 1.8 nM
CC(O)c1ccc2nn(-c3ccccc3)c(NC(=O)c3cc(-c4cc[nH]n4)c(C(F)(F)F)cc3F)c2n1 (single isomer, unassigned; isomer a) [Compound 31, (R or S)-2-fluoro-N-[5-(1-hydroxyethyl)-2-phenyl-2H-pyrazolo[4,3-b]pyridin-3-yl]-5-(1H-pyrazol-3-yl)-4-(trifluoromethyl)benzamide, isomer A] | 5.2 nM
CC(O)c1cnc2c(NC(=O)c3cc(-c4ccn(C)n4)c(C(F)(F)F)cc3F)n(-c3ccccc3)nc2c1 (single isomer, unassigned; isomer a) [Compound 33, (R or S)-2-fluoro-N-[6-(1-hydroxyethyl)-2-phenyl-2H-pyrazolo[4,3-b]pyridin-3-yl]-5-(1-methyl-1H-pyrazol-3-yl)-4-(trifluoromethyl)benzamide, isomer A] | 0.25 nM
CC(O)c1cnc2c(NC(=O)c3cc(-c4ncccn4)c(C(F)(F)F)cc3Cl)n(-c3ccccc3)nc2c1 (single isomer, unassigned; isomer a) [Compound 35, (R or S)-2-chloro-N-[6-(1-hydroxyethyl)-2-phenyl-2H-pyrazolo[4,3-b]pyridin-3-yl]-5-pyrimidin-2-yl-4-(trifluoromethyl)benzamide, isomer A] | 1.7 nM
CC(O)c1ccc2c(NC(=O)c3cc(-c4ncccn4)c(C(F)(F)F)cc3Cl)n(-c3ccccc3)nc2c1 (single isomer, unassigned; isomer a) [Compound 37, (R or S)-2-chloro-N-[6-(1-hydroxyethyl)-2-phenyl-2H-indazol-3-yl]-5-pyrimidin-2-yl-4-(trifluoromethyl)benzamide, isomer A] | 4.4 nM

Further lines, results first:

IC50 | SMILES
29 nM | O=C(Nc1c2ccc(C(O)C(F)(F)F)cc2nn1-c1ccccc1)c1cc(-c2ncccn2)c(C(F)(F)F)cc1F (single isomer, unassigned) [Compound 53, (R or S)-2-Fluoro-N-{2-phenyl-6-[(1S)-2,2,2-trifluoro-1-hydroxyethyl]-2H-indazol-3-yl}-5-pyrimidin-2-yl-4-(trifluoromethyl)benzamide, isomers A and B]
7.1 nM | CC(N)c1ccc2c(NC(=O)c3cc(-c4ncccn4)c(C(F)(F)F)cc3F)n(-c3ccccc3)nc2c1 (single isomer, unassigned) [Compound 69, (R or S)-N-{6-[1-aminoethyl]-2-phenyl-2H-indazol-3-yl}-2-fluoro-5-pyrimidin-2-yl-4-(trifluoromethyl)benzamide]
14 nM | CC(N)c1ccc2c(NC(=O)c3cc(-c4ncccn4)c(C(F)(F)F)cc3F)n(-c3ccccc3)nc2c1 (single isomer, unassigned) [Compound 70, (R or S)-N-{6-[1-aminoethyl]-2-phenyl-2H-indazol-3-yl}-2-fluoro-5-pyrimidin-2-yl-4-(trifluoromethyl)benzamide]
29 nM | O=C(Nc1c2ccc(C3CCCN3)cc2nn1-c1ccccc1)c1cc(-c2ncccn2)c(C(F)(F)F)cc1F (single isomer, unassigned) [Compound 102, (R and S)-2-Fluoro-N-(2-phenyl-6-(pyrrolidin-2-yl)-2H-indazol-3-yl)-5-(pyrimidin-2-yl)-4-(trifluoromethyl)benzamide, isomers A and B]
29 nM | O=C(Nc1c2ccc(C3CCCN3)cc2nn1-c1ccccc1)c1cc(-c2ncccn2)c(C(F)(F)F)cc1F (single isomer, unassigned) [Compound 103, (R and S)-2-Fluoro-N-(2-phenyl-6-(pyrrolidin-2-yl)-2H-indazol-3-yl)-5-(pyrimidin-2-yl)-4-(trifluoromethyl)benzamide, isomers A and B]
23 nM | O=C(Nc1c2cc(C(O)C(F)(F)F)ccc2nn1-c1ccccc1)c1cc(-c2ncccn2)c(C(F)(F)F)cc1F (single isomer, unassigned; isomer a) [Compound 54, (R or S)-2-fluoro-N-(2-phenyl-5-(2,2,2-trifluoro-1-hydroxyethyl)-2H-indazol-3-yl)-5-(pyrimidin-2-yl)-4-(trifluoromethyl)benzamide, isomer A]
2.8 nM | O=C(Nc1c2ccc(C(O)C(F)F)cc2nn1-c1ccccc1)c1cc(-c2ncccn2)c(C(F)(F)F)cc1F (single isomer, unassigned; isomer a) [Compound 56, (R or S)-N-[6-(2,2-difluoro-1-hydroxyethyl)-2-phenyl-2H-indazol-3-yl]-2-fluoro-5-pyrimidin-2-yl-4-(trifluoromethyl)benzamide, isomer A]
